Measurements reported in patent US20120202892A1, “Cannabinoid-Containing Compositions and Methods for Their Use” (University of Kentucky Research Foundation, priority 2008, published 2012).
Values joined by “and” are separate entries in the source; they are usually repeats but may differ in a detail not shown here. Equal values may be shown once. “Also recorded” adds a separate entry of the source. Read-outs that look alike come from different tables or passages of the source. Marks after values point to notes of the source that are not given here.

How the values were obtained:
[1] = tested on: CFA intraplantar injection; conditions: rats, 20 mg/kg oral, 7 consecutive days; cited from earlier work
[2] = tested on: collagen-induced arthritis; conditions: mice, cited from earlier work
[3] = tested on: CFA-induced mono-arthritis pain; assay: Pain-related posture (spontaneous pain rating score 0-5); format: in vivo, Sprague-Dawley rats; conditions: after CFA, before CBD gel
Source text: The abnormal posture of the affected hind limb of each animal was assigned a single score using a subjective pain-related behavioral scale (spontaneous pain rating score 0-5), i.e. 0—normal; 1—curling of the toes, 2—eversion of the paw; 3—partial weight bearing; 4—non-weight bearing and guarding; and 5—avoidance of any contact with the hindlimb (Sluka et al. (1994) Neuroreport 5:109-112).
Baseline parameters (body weight, knee joint temperature, and knee joint circumference) were obtained before the knee injection of rats with CFA. PWL test and exploratory activity testing were also conducted prior to CFA injection. Rats were anesthetized with a short term anesthetic and the left knee joint, cavity was injected with CFA for induction of mono-arthritis. On day 3, the back of each animal was shaved. […] Rats received daily treatments for four consecutive days of either vehicle gel, or CBD gel. Gel was applied to the skin in a templated region on the dorsal surface of the rat and rubbed into the skin for 30 sec to ensure complete coverage. The nitrile template was used to ensure specific area reproducibility. […] Exploratory activity was monitored prior to initial gel application and on the third day post gel application (after 6 h). […] Blood samples were obtained for CBD plasma quantification, and tissues (knee joints, dorsal root ganglia, spinal cord, brain) were collected after perfusion. […]

[4] = tested on: normal (non-CFA) rats; assay: Open field exploratory behavioral activity; format: in vivo, Sprague-Dawley rats
Method: Exploratory behavioral activity of the rats was monitored using the Flexfield Animal Activity System (San Diego Instruments; San Diego, Calif.) with a Photobeam Activity System software coupled to a computer according to previously published methods by Zhang et al., (2004) Pharmacol Biochem Behav 77: 145-153. Briefly, six main parameters were recorded: rearing events and rearing time, active time, and resting time, total activity (i.e. number of photobeams disturbed in the x-y-z planes while the rat was moving around in the box or involved in stationary movement such as grooming), and distance traveled. Activity testing was conducted in an isolated, temperature controlled area at similar times daily in order to provide consistent results.
(§1) Baseline parameters (body weight, knee joint temperature, and knee joint circumference) were obtained before the knee injection of rats with CFA. PWL test and exploratory activity testing were also conducted prior to CFA injection. Rats were anesthetized with a short term anesthetic and the left knee joint, cavity was injected with CFA for induction of mono-arthritis. On day 3, the back of each animal was shaved. […] Rats received daily treatments for four consecutive days of either vehicle gel, or CBD gel. Gel was applied to the skin in a templated region on the dorsal surface of the rat and rubbed into the skin for 30 sec to ensure complete coverage. The nitrile template was used to ensure specific area reproducibility. The PWL test was conducted 4 h after gel application. Exploratory activity was monitored prior to initial gel application and on the third day post gel application (after 6 h). On the final day of gel application after the body and knee joint parameters were obtained and PWL test was conducted, rats were cuthanized by pentobarbital overdose. Blood samples were obtained for CBD plasma quantification, and tissues (knee joints, dorsal root ganglia, spinal cord, brain) were collected after perfusion.

[5] = target: CB2 receptor (Homo sapiens, UniProt P34972); conditions: cited from earlier work
[6] = tested on: carrageenan-induced paw edema; conditions: cited from earlier work
[7] = Plasma CBD concentration after topical gel application (LC/MS); format: in vivo, Sprague-Dawley rats; conditions: rats
Method: as §1
50 μL aliquot of plasma collected from cannabidiol dosed rats was added to a siliconized microcentrifuge tube containing 500 μL of 1:1 ACN:ethyl acetate. The plasma/ACN:ethyl acetate sample was vortexed for 30 sec and centrifuged at 10,000×g for 20 min. The supernatant was removed and placed into a clean silanized culture tube and evaporated under nitrogen in a 37° C. water bath. The dried sample was reconstituted with 100 μL of ACN and vortexed for 30 sec, then sonicated for 5 min. […] Standards were prepared by spiking blank plasma samples with respective standard concentrations and extracting the standards similarly to the collected plasma samples.
The LC/MS system used to analyze samples was comprised of a Waters Alliance 2695 pump and autosampler, a Micromass™ ZQ detector, and 996 photodiode array detector with MassLynx™ software (Waters Corp., Milford, Mass.). A Symmetry™ C18 column (150×2.1 mm, 5 μm) with a Sentry Symmetry™ guard column (10×2.1 mm, 3.5 μm) was used with the LC/MS system. The ZQ detector was used with an electrospray ionization (ESI) probe set for single ion monitoring (SIM) for cannabidiol quantification. Analysis was performed in negative mode for m/z 313 [CBD-H]^− (dwell time: 30 sec). Capillary and cone voltage were set at […] and 40 V, respectively. Source block and desolvation temperatures were set at 120° C. and 250° C., respectively. Nitrogen produced from the Nitroflow Lab (Parker Hannifin Corp; Cleveland, Ohio) was used as nebulization and drying gas flow rates of 50 and 450 L/h, respectively. […]

[8] = tested on: CFA-induced mono-arthritis, secondary thermal hyperalgesia; assay: Secondary thermal hyperalgesia, paw withdrawal latency (PWL) test; format: in vivo, Sprague-Dawley rats; conditions: for Paw withdrawal latency (PWL), own baseline score: baseline before CFA and CBD
Method: Secondary thermal hyperalgesia was assessed with the paw withdrawal latency (PWL) test (Hargreaves et al. (1988) Pain 32: 77-88). PWLs were measured in response to a radiant heat source shone on one hind paw of the animals from beneath a glass top table. A shortened PWL response in animals with knee joint inflammation was indicative of secondary thermal hyperalgesia. Animals were placed in separate plastic cubicles (4×4×10 in) on a glass top table (2 mm thickness of glass) and allowed to adapt to their new environment for 20-30 min before testing. A small movable metal box that focused a high-intensity light beam through an aperture (0.5 cm×0.5 cm) was attached to an on/off switch and a digital timer. The light beam was applied to the plantar surface of the hind paw through the glass until the rat lifted its paw. At that time, the light is switched off and the number of seconds on the digital timer recorded as the PWL (sec). The maximal cut off time for the paw-withdrawal reflex was set to 15 sec (55° C.). […] Both hind paws were tested independently for 5 trials per side with 5-minute intervals between trials. A mean of the 5 trials was calculated for each animal. The PWL tests were performed before knee joint injection as a baseline and 5 times after the CFA injection beginning on day 3 (days 3-7). The examiner was blind from the treatment group of animals.
as §1
Half of the treated rats were injected with the CFA in the knee joint. Within each group of rats, half received vehicle gel without CBD and the other half received the gel CBD. Four different doses were tested in the rats, 0.6 mg/d, 3.1 mg/d, 6.2 mg/d, or 62.3 mg/d. […] A two-fold lower dose and a ten-fold lower/higher dose (3.1 mg/d, 0.6 mg/d, and 62.3 mg/d) were also investigated. Area of application, amount of gel, and/or concentration of gel was adjusted to achieve the desired doses.

[9] = tested on: CFA-induced knee joint inflammation; assay: Knee joint temperature in CFA mono-arthritic rats; format: in vivo, Sprague-Dawley rats
[10] = tested on: CFA-induced knee joint inflammation; assay: Knee joint circumference in CFA mono-arthritic rats; format: in vivo, Sprague-Dawley rats
[11] = in vivo; cited from earlier work
[12] = 0.6 mg/d group, after CFA, before CBD gel
[13] = 3.1 mg/d group, after CFA, before CBD gel
[14] = 3.1 mg/d transdermal CBD gel, Post-CBD, day 4
[15] = 6.2 mg/d group, after CFA, before CBD gel
[16] = 62.3 mg/d group, after CFA, before CBD gel
[17] = CFA + CBD group, baseline before CFA and before CBD

CB2 receptor, sequence (P34972 whole entry): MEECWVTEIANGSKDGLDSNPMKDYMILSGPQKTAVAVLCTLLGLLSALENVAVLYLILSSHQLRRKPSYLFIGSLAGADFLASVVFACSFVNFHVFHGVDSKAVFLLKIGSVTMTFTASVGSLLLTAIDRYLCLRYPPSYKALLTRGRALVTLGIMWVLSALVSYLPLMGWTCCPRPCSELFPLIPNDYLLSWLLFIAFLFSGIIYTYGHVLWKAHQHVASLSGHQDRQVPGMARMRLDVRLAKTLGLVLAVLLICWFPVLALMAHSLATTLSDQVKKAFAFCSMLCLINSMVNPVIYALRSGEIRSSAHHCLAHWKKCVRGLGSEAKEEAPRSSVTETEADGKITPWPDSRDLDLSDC

SMILES: C=C(C)C1CCC(C)=CC1c1c(O)cc(CCCCC)cc1O (stereo not drawn) [CBD, 2-[3-methyl-6-(1-methylethenyl)-2-cyclohexen-1-yl]-5-pentyl-1,3-benzenedi-ol]
- Decrease in thermal and mechanical withdrawal latency [1]: 50%
- Therapeutic action on established CIA ([2]; administered systemically (ip and oral)): beneficial therapeutic action
- Optimal dose for arthritis suppression ([2]; i.p. (2.5, 5, 10, 20 mg/kg tested)): 5 mg/kg
- Optimal dose for arthritis suppression ([2]; oral (10, 25, 50 mg/kg tested)): 25 mg/kg
- Spontaneous pain rating scores [mean ± SD] ([3]; 0.6 mg/d group): 4.0 ± 0.0^b
- Spontaneous pain rating scores [mean ± SD] ([3]; 3.1 mg/d group): 4.0 ± 0.0^b
- Distance traveled ([4]; 0.6 mg/d CBD gel, post-dose, p<0.05 vs pre-dose): 1757.1±299.2 cm
- Distance traveled ([4]; 0.6 mg/d group, pre-dose): 2245.5±367.4 cm
- Rearing events ([4]; 3.1 mg/d group, pre-dose): 284.0±31.1
- Rearing time ([4]; 3.1 mg/d group, pre-dose): 189.1±20.7
- Exploratory activity, six parameters (rearing events, rearing time, total beams broken, distance traveled, active time, resting time) ([4]; among dose groups and pre- vs post-dose, p>0.05, exception distance traveled at 0.6 mg/d): No significant (p>0.05) differences
- Binding affinity for CB2 receptor [5]: little binding affinity
- Effect on hyperalgesia (PWL) ([6]; mice, 5 and 7.5 mg/kg oral, by 6 h): eliminated hyperalgesia
- Effect on hyperalgesia (PWL) ([6]; mice, 10, 20 and 40 mg/kg oral, 3 h post carrageenan): elimination of hyperalgesia
- Plasma CBD concentration ([7]; topical gel 0.6 mg/d, four consecutive days): 3.8 ± 1.4 ng/mL
- Plasma CBD concentration ([7]; topical gel 3.1 mg/d): 17.5 ± 4.4 ng/mL
- Plasma CBD concentration ([7]; topical gel 6.2 mg/d): 33.3 ± 9.7 ng/mL
- Plasma CBD concentration ([7]; topical gel 62.3 mg/d (10% w/w gel), not in linear profile): 1,629.9±379.0 ng/mL
- Paw withdrawal latency (PWL), own baseline score ([8]; 6.2 mg/d group): 10.9 ± 0.3 s
- Paw withdrawal latency (PWL), own baseline score ([8]; 62.3 mg/d group): 9.3 ± 0.3 s
- Paw withdrawal latency (PWL) ([8]; CFA rats, 0.6 mg/d CBD gel, day 2 of application, 4 h after application): 7.8 ± 0.5 s
- Improvement of PWL scores ([8]; CFA rats, 0.6 mg/d and 3.1 mg/d CBD, day 4): did not have improved PWL scores
- Paw withdrawal latency (PWL) ([8]; CFA rats, 3.1 mg/d CBD gel, day 2 of application): 7.6 ± 0.8 s
- Paw withdrawal latency (PWL) ([8]; CFA rats, 6.2 mg/d CBD gel, day 2 of application, p<0.05 vs vehicle gel): 9.2 ± 0.7 s
- Paw withdrawal latency (PWL) ([8]; CFA rats, 6.2 mg/d CBD gel, day 4): 9.2 ± 0.3 s
- Change in PWL vs CFA rats receiving vehicle gel ([8]; CFA rats, 6.2 mg/d, 4 h (d 1) post CBD dosing, p<0.05): improvement
- Paw withdrawal latency (PWL) ([8]; CFA rats, 62.3 mg/d CBD gel, day 2 of application, p<0.05 vs vehicle gel): 9.1 ± 0.2 s
- Paw withdrawal latency (PWL) ([8]; CFA rats, 62.3 mg/d CBD gel, day 4): 9.3 ± 0.2 s
- Paw withdrawal latency (PWL) ([8]; normal controls, 6.2 mg/d CBD gel, day 4): 10.6 ± 0.3 s
- Paw withdrawal latency (PWL) ([8]; normal rats, 0.6 mg/d CBD gel, day 2): 9.9 ± 0.2 s
- Paw withdrawal latency (PWL) ([8]; normal rats, 3.1 mg/d CBD gel, day 2): 9.9 ± 0.3 s
- Paw withdrawal latency (PWL) ([8]; normal rats, 6.2 mg/d CBD gel, day 2): 10.1 ± 0.9 s
- Effect on PWL in normal rats ([8]; normal rats, any CBD dose (0.6, 3.1, 6.2 mg/d)): not affected; also recorded: no effect
- Knee joint temperature [mean ± SD] [9, 12]: 31.7 ± 1.7^b ° C.
- Knee joint temperature [mean ± SD] ([9]; 0.6 mg/d transdermal CBD gel, Post-CBD, day 4): 31.2 ± 0.7^b ° C.
- Knee joint temperature [mean ± SD] [9, 13]: 30.8 ± 0.9^b ° C.
- Knee joint temperature [mean ± SD] [9, 14]: 30.6 ± 0.6^b ° C.
- Knee joint temperature [mean ± SD] [9, 15]: 32.1 ± 1.8^b ° C.
- Knee joint temperature [mean ± SD] ([9]; 6.2 mg/d transdermal CBD gel, Post-CBD, day 4): 31.7 ± 2.1^b ° C.
- Knee joint temperature [mean ± SD] [9, 16]: 34.1 ± 0.8^a ° C.
- Knee joint temperature [mean ± SD] ([9]; 62.3 mg/d transdermal CBD gel, Post-CBD, day 4): 30.2 ± 0.9^a ° C.
- Difference in knee joint temperature among the treatment groups ([9]; CBD gel doses vs vehicle gel, p>0.05): No knee joint temperature differences; also recorded: no significant differences
- Knee joint temperature [mean ± SD] [9, 17]: 33.4 ± 0.2^a ° C.
- Knee joint circumference [mean ± SD] [10, 12]: 7.5 ± 0.3^b cm
- Knee joint circumference [mean ± SD] ([10]; 0.6 mg/d transdermal CBD gel, Post-CBD, four consecutive days (day 4)): 7.0 ± 0.3^b cm
- Knee joint circumference [mean ± SD] [10, 13]: 7.4 ± 0.4^b cm
- Knee joint circumference [mean ± SD] [10, 14]: 7.1 ± 0.3^b cm
- Knee joint circumference [mean ± SD] [10, 15]: 7.2 ± 0.3^b cm
- Knee joint circumference [mean ± SD] ([10]; 6.2 mg/d transdermal CBD gel, Post-CBD, day 4, p<0.05 vs vehicle gel): 6.6±0.2 cm and 6.6 ± 0.2^b* cm
- Knee joint circumference [mean ± SD] [10, 16]: 7.2 ± 0.0^a cm
- Knee joint circumference [mean ± SD] ([10]; 62.3 mg/d transdermal CBD gel, Post-CBD, day 4, p<0.05 vs vehicle gel): 6.6±0.1 cm and 6.6 ± 0.1^a* cm
- Knee joint circumference [mean ± SD] [10, 17]: 5.7±0.2 cm and 5.7 ± 0.2^c cm
- Optimal treatment dose for knee inflammation ([10]; transdermal gel, no further improvement with 62.3 mg/d): 6.2 mg/day

SMILES: CCCCCc1cc(O)c2c(c1)OC(C)(C)[C@@H]1CCC(C)=C[C@@H]21 [THC, Δ^9-tetrahydrocannabinol]
- Side effects caused [11]: hypothermia and hypomobility
